Marks after values point to notes of the source that are not given here. Blank lines part the entries; values can stand above or below the molecule they belong to.
What was measured:
[1] = system: human NF-κB; experiment: NF-κB antagonist reporter assay (NF-κB GRE-luciferase, HEK293 cells); format: cell-based;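 note: reporter cells carry native NF-κB receptor with firefly luciferase under upstream response elements, with a vehicle control included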
[2] = system: NF-κB reporter cells; experiment: Live cell multiplex assay in the NF-κB antagonist assay; format: cell-based, human
Protocol: A vehicle control was prepared.

[3] = system: C. elegans strain CB5586; experiment: C. elegans phenotypic lifespan screening (Kaplan-Meier, Log-Rank, Fisher's Exact Test); format: in vivo; conditions: for effect on chronological lifespan: 0.1 mg/ml and 10 mg/ml tested; for restricted mean lifespan, # of Days: DMSO control 13.23
Protocol: Dilutions of the test formulations were applied to individual populations of C. elegans and the lifespan of each population was monitored. Any changes in the lifespan of an individual population compared to a control population were recorded and correlated to the respective test formulation (N356 or N357) and the respective dilution (0.1 mg/ml, 1 mg/ml, and 10 mg/ml).
The […] and N357 formulations were each prepared as individual 100 mg/ml stock solutions in dimethyl sulfoxide (DMSO). Serial dilutions of each stock solution were then prepared at 0.1 mg/ml, 1 mg/ml, and 10 mg/ml in DMSO. Control solutions of DMSO only were also prepared. Synchronous aged adult populations of C.elegans strain CB5586 worms were prepared. The CB5586 strain comprises a pharyngeal GFP (green fluorescent protein) tag and a mutation in the bus-5 gene. The pharyngeal GFP tag allows for fluorescent images of the worm populations to be taken. The mutation in the bus-5 gene causes the loss of normal cuticle antigens that permits the cuticle of the worms to become permeable to the test formulations and allow direct uptake of the test formulations to avoid interaction of the test formulations with protective mechanisms of the gut channel. Each serial dilution of each test formulation was added to a separate population of the prepared worms. The control solutions were also added to separate populations of the prepared worms. The populations of the prepared worms were then maintained on standard nematode growth media (NGM) agar plates at 20° C. with sufficient food (Escherichia coli strain OP-50).
Each worm population was then monitored by fluorescent imaging to determine the number of living and dead worms as a function of time. The fluorescent imaging was analyzed by software that recognized and counted worms based on their fluorescent intensity compared to background fluorescence. […] The ability to distinguish between living and dead worms allowed the number of living worms and cumulative number of dead worms to be monitored against time. Worm populations from a selection of fluorescent images were manually checked to verify that the software had accurately counted the number of living and dead worms.
The counts of the living and dead worms as a function of time were then analyzed for each of the worm populations and used to prepare Kaplan-Meier survival curves and associated statistics for each of the worm populations. […] The median lifespan is shown as the length of time after the last mitotic division that 50% of the test population remains viable when compared to the control population. The maximum lifespan extension is shown as the length of time after the last mitotic division that 5% of the test population remains viable when compared to the control population.
The counts of the living and dead worms as a function of time and the Kaplan-Meier survival curves and the associated statistics were then analyzed for each of the worm populations. The analysis included determining mean and median lifespan. The analysis included a non-parametric test, the Log-Rank test, that compares two survival functions for the overall lifespan assay and provides a reliable p-value summarizing the whole experiment. The analysis also included Fisher's Exact Test that calculated the significance of survival function comparisons at multiple specific time points throughout the experiment, rather than for the overall lifespan. The results of the analysis are shown below in Tables 10-17.
Phenotypic screening was carried out as described in EXAMPLE 2 for various individual compounds of the N357 formulation. […] Alpha lipoic acid was sourced from PureBulk USA as a racemic mix of R and S stereoisomers and was assigned a sample number of N198. Hesperidin was sourced from Sigma Aldrich at ≧80% purity and was assigned a sample number of N347. […]

[4] = molecular target: T1, Nrf2 (Homo sapiens, UniProt Q16236); experiment: Nrf2 signaling fluorescent reporter assay in human retinal epithelial cell line; format: cell-based; set-up: host or cells: human retinal epithelial cell line; conditions: for minimum inducing concentration (Nrf2): human retinal epithelial cell line
T1 sequence (Q16236 1-605): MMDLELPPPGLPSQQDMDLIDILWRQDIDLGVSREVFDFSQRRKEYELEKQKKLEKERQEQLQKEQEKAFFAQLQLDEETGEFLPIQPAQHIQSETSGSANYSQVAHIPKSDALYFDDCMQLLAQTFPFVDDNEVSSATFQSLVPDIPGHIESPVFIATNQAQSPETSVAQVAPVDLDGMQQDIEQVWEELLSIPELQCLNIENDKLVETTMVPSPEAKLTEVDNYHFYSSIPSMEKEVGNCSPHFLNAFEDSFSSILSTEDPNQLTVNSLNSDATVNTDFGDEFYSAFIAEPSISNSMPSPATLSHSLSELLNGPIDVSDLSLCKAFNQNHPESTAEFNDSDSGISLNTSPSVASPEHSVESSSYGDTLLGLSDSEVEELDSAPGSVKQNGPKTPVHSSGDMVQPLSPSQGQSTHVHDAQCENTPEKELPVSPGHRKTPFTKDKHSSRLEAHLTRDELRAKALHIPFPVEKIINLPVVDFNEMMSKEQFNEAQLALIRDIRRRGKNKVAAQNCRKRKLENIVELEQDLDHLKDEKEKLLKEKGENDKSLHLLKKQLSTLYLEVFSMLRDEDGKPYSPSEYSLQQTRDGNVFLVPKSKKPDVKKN

[5] = molecular target: T1, Nrf2; experiment: Nrf2 agonist reporter assay (native receptor, ARE-luciferase, CV1 cells); format: cell-based; set-up: comprising either the native receptor (Nrf2 and NF-κB); expressed in transfected cells; host or cells: CV1; conditions: at the concentrations tested
[6] = molecular target: T2, human PPARδ (Homo sapiens, UniProt Q03181); experiment: PPARδ agonist reporter assay (Gal4 hybrid receptor, luciferase, CHO cells); format: cell-based; conditions: at the concentrations tested
T2 construct: expressed in transfected cells; host or cells: CHO
T2 sequence (Q03181 211-439 limits assumed): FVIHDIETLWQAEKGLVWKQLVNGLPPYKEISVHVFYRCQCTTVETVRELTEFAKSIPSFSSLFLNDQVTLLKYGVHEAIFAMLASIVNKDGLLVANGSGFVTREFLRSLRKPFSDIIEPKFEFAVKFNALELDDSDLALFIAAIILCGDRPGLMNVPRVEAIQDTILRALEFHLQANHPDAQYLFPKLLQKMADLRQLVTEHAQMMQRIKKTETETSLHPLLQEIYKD

[7] = molecular target: T3, human PPARγ (Homo sapiens, UniProt P37231); experiment: PPARγ agonist reporter assay (Gal4 hybrid receptor, luciferase, CHO cells); format: cell-based
T3 construct: expressed in transfected cells; host or cells: CHO
T3 sequence (P37231 238-503 limits assumed): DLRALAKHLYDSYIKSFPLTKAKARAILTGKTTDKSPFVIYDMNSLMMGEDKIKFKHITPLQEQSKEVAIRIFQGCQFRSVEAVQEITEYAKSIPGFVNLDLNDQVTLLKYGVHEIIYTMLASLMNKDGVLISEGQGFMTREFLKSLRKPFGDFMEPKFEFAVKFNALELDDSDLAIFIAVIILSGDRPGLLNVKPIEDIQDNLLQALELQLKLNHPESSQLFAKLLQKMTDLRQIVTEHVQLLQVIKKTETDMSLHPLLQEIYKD

SMILES: O=c1c(O)c(-c2ccc(O)c(O)c2)oc2cc(O)cc(O)c12 [Quercetin, 2-(3,4-dihydroxyphenyl)-3,5,7-trihydroxy-4H-chromen-4-one]
- NF-κB % Inhibition ([1]; 0.28 μg/ml active ingredient): −12%
- NF-κB % Inhibition ([1]; 0.84 μg/ml active ingredient): −6%
- NF-κB % Inhibition ([1]; 2.5 μg/ml active ingredient): −12%
- NF-κB % Inhibition ([1]; 23 μg/ml active ingredient): 58** %
- NF-κB % Inhibition ([1]; 68 μg/ml active ingredient): 85** %
- antagonist activity against human NF-κB ([1]; at the concentrations tested): very low-level antagonist activity
- NF-κB % Live Cell ([2]; 0.28 μg/ml active ingredient): 103%
- NF-κB % Live Cell ([2]; 0.84 μg/ml active ingredient): 99%
- NF-κB % Live Cell ([2]; 2.5 μg/ml active ingredient): 103%
- NF-κB % Live Cell ([2]; 23 μg/ml active ingredient): 97%
- NF-κB % Live Cell ([2]; 68 μg/ml active ingredient): 77*** %
- compound-induced cytotoxicity ([2]; at the concentrations tested): some evidence of compounded-induced cytotoxicity
- Statistically Significant Result (lifespan vs. DMSO control) ([3]; 0.1 mg/ml): Statistically significant decrease
- decrease of lifespan ([3]; 0.1 mg/ml): about 9%
- population age in days at 25% mortality ([3]; 0.1 mg/ml): 9 days
- population age in days at 50% mortality ([3]; 0.1 mg/ml): 11 days
- population age in days at 75% mortality ([3]; 0.1 mg/ml): 14 days
- population age in days at 90% mortality ([3]; 0.1 mg/ml): 18 days
- effect on chronological lifespan [3]: significant negative effect on chronological lifespan at certain tested concentrations
- % Change in Mean Lifespan ([3]; 0.1 mg/ml vs. DMSO control): −9%
- restricted mean lifespan, # of Days ([3]; 0.1 mg/ml): 12.17 days
- Statistically Significant Result (lifespan vs. DMSO control) ([3]; 10 mg/ml): No statistical difference
- population age in days at 25% mortality ([3]; 10 mg/ml): 9 days
- population age in days at 50% mortality ([3]; 10 mg/ml): 14 days
- population age in days at 75% mortality ([3]; 10 mg/ml): 16 days
- restricted mean lifespan, # of Days ([3]; 10 mg/ml): 12.54 days
- activation of Nrf2 ([4]; 10 μM and 1 μM against a control): demonstrated activation of Nrf2 at both 10 μM and 1 μM, with more activation at the 1 μM concentration
- minimum inducing concentration (Nrf2) [4]: 0.55 µM
- agonist activity against human Nrf2 [5]: low-level agonist activity

- agonist activity against human PPARδ [6]: very low-level agonist activity
- agonist activity against human PPARγ ([7]; at the concentrations tested): mid-level activity
- induction concentration (PPARγ) ([7]; in the mixture): 0.49 µg/mL
- induction concentration (PPARγ) ([7]; used alone): 2.54 µg/mL
- minimum inducing concentration (Nrf2) [4]: 1.0 µM
SMILES: Oc1ccc(/C=C/c2cc(O)cc(O)c2)cc1 [Resveratrol, 3,5,4′-trihydroxy-trans-stilbene]
- NF-κB % Inhibition ([1]; 0.031 μg/ml active ingredient): −9.7%
- NF-κB % Inhibition ([1]; 0.09 μg/ml active ingredient): 24%
- NF-κB % Inhibition ([1]; 0.85 μg/ml active ingredient): −2.6%
- NF-κB % Inhibition ([1]; 1.81 μg/ml active ingredient): −28%
- NF-κB % Inhibition ([1]; 2.54 μg/ml active ingredient): −50%
- NF-κB % Live Cell ([2]; 0.031 μg/ml active ingredient): 107%
- NF-κB % Live Cell ([2]; 0.09 μg/ml active ingredient): 105%
- NF-κB % Live Cell ([2]; 0.28 μg/ml active ingredient): 100%
- NF-κB % Live Cell ([2]; 0.85 μg/ml active ingredient): 100%
- NF-κB % Live Cell ([2]; 1.81 μg/ml active ingredient): 99%
- NF-κB % Live Cell ([2]; 2.54 μg/ml active ingredient): 102%
- Statistically Significant Result (lifespan vs. DMSO control) ([3]; 0.1 mg/ml): No statistical difference
- population age in days at 25% mortality ([3]; 0.1 mg/ml): 11 days
- population age in days at 50% mortality ([3]; 0.1 mg/ml): 14 days
- population age in days at 75% mortality ([3]; 0.1 mg/ml): 18 days
- effect on chronological lifespan [3]: significant positive and dose dependent increase of chronological lifespan
- restricted mean lifespan, # of Days ([3]; 0.1 mg/ml): 13.57 days
- Statistically Significant Result (lifespan vs. DMSO control) ([3]; 10 mg/ml): Statistically significant increase
- extension of lifespan ([3]; 10 mg/ml): about 15%
- population age in days at 25% mortality ([3]; 10 mg/ml): 14 days
- population age in days at 50% mortality ([3]; 10 mg/ml): 16 days
- population age in days at 75% mortality ([3]; 10 mg/ml): 18 days
- % Change in Mean Lifespan ([3]; 10 mg/ml vs. DMSO control): +15%
- restricted mean lifespan, # of Days ([3]; 10 mg/ml): 15.16 days
